Test results taken from ChEMBL document CHEMBL1201862, “PubChem BioAssay data set” (2004).
Calls of active or inactive are those of the source.

Experiments:
Bcl-2-related protein A1 = molecular target: T1, Bcl-2-related protein A1 (Mus musculus, UniProt Q07440); type: functional;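 further: confirmatory dose–response counterscreen on Bfl-1, used to check hits from a UBC13 polyubiquitin inhibitor campaign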
T1 sequence (Q07440 whole entry): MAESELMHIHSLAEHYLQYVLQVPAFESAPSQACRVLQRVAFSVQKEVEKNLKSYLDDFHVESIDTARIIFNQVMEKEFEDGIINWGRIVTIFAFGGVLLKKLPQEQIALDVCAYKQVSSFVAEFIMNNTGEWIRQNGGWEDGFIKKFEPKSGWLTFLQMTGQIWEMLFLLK

[1] = molecular target: T2, Ubiquitin-conjugating enzyme E2 N (Homo sapiens, UniProt P61088); type: functional
T2 sequence (P61088 whole entry): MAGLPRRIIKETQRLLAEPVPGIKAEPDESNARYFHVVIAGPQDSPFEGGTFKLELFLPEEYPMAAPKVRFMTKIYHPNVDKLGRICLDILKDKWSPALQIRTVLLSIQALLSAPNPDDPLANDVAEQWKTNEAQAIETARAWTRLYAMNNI

[2] = molecular target: T2, Ubiquitin-conjugating enzyme E2 N; type: functional; remark: listed apart in the source
[3] = molecular target: T3, Apoptotic protease-activating factor 1 (Homo sapiens, UniProt O14727); type: functional
T3 sequence (O14727 whole entry): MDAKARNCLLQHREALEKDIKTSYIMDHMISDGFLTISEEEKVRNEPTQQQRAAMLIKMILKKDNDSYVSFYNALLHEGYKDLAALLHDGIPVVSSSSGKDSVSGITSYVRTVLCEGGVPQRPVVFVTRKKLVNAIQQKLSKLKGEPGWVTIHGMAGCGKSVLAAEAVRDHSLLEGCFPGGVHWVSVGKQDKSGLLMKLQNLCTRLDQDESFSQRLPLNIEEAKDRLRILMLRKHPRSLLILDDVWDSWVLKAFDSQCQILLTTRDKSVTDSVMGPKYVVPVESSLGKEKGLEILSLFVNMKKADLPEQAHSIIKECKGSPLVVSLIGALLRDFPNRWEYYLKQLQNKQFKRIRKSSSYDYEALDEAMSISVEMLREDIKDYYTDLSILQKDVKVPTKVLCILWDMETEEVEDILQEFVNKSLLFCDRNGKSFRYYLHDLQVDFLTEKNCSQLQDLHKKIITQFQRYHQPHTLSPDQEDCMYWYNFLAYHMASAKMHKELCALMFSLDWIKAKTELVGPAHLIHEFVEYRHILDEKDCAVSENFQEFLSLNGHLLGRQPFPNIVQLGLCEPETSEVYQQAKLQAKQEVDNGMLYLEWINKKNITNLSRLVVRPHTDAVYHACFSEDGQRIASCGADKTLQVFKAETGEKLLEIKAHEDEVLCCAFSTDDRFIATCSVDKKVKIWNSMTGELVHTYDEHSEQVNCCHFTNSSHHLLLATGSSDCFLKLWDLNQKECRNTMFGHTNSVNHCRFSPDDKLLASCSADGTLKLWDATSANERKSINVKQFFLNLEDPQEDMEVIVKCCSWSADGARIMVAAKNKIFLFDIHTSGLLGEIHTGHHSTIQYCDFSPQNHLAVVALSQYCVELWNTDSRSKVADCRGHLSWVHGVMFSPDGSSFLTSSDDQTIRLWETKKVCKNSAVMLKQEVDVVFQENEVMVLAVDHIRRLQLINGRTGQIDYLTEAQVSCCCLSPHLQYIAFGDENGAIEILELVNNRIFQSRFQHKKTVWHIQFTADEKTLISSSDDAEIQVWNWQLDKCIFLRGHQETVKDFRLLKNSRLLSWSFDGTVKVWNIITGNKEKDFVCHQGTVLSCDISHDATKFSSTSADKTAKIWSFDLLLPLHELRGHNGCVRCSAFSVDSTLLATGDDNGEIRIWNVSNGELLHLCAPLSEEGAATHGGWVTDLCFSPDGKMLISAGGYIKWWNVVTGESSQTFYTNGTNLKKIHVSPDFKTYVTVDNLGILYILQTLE

Melanocortin receptor 4 = Melanocortin receptor 4 (Homo sapiens, UniProt P32245); type: functional, cell-based;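 further: Cell-based assay with luminescence read-out, confirmatory dose-response testing for agonist activity of biased ligands at MC4R; human U2OS cells with tagged receptor and beta-arrestin; potency of agonists that increase receptor coupling to beta-arrestin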
[4] = MDA-MB-231 cell growth inhibition, dose response, cytotoxicity control for RAD54 inhibitor project, CellTiter-Glo luminescence, cherry-pick (AID 651692); type: functional, cell-based
[5] = molecular target: DNA repair and recombination protein RAD54-like (Homo sapiens, UniProt Q92698); assay: inhibitors of human RAD54 branch migration, confirmation, biochemical, fluorescence, cherry-picked samples, dose series (AID 651657); type: functional
[6] = molecular target: G-protein coupled receptor 55 (Homo sapiens, UniProt Q9Y2T6); assay: GPR55 agonists via beta-arrestin recruitment, primary screen, imaging, U2OS cells, beta-arrestin-GFP redistribution (AID 1961); type: functional
[7] = molecular target: Glucose-6-phosphate 1-dehydrogenase (Homo sapiens, UniProt P11413); assay: human G6PD enzyme inhibitors, dose response, selectivity assay for P. falciparum G6PD inhibitor project, biochemical, fluorescence (AID 504792); type: functional
Trypsin = Trypsin (Sus scrofa, UniProt P00761); assay: porcine trypsin inhibitors, dose response, selectivity assay for Rce1 protease inhibitor project, biochemical, quenched peptide fluorescence, cherry-pick (AID 488789)
CAAX prenyl protease 2 = molecular target: T4, CAAX prenyl protease 2 (Saccharomyces cerevisiae S288c, UniProt Q03530); type: biochemical
T4 sequence (Q03530 whole entry): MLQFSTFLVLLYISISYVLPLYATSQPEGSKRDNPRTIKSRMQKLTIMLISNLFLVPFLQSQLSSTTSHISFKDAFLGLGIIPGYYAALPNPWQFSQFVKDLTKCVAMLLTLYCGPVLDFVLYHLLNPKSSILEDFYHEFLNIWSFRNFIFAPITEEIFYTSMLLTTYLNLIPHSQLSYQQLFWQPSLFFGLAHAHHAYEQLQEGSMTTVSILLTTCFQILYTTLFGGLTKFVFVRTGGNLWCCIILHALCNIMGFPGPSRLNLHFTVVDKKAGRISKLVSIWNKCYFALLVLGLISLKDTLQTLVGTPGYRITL

[8] = mammalian cell cytotoxicity, dose response, cytotoxicity control, plate reader, cherry-pick samples (AID 504397); type: functional, cell-based

Chain of Glucose-6-phosphate 1-dehydrogenase (P11413 whole entry): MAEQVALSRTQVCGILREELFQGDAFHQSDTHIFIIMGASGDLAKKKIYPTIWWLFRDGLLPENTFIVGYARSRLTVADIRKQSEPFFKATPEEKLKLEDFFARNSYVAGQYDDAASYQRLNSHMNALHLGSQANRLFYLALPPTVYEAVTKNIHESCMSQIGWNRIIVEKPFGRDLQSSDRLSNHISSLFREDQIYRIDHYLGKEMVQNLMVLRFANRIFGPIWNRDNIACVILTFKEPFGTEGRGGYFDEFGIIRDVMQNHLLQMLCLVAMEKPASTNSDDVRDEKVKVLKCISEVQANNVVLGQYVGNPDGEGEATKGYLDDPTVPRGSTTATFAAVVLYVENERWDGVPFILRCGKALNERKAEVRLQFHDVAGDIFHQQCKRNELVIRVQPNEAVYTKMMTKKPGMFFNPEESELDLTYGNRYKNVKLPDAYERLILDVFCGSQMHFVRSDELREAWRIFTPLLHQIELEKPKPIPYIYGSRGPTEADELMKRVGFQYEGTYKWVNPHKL
Chain of G-protein coupled receptor 55 (Q9Y2T6 whole entry): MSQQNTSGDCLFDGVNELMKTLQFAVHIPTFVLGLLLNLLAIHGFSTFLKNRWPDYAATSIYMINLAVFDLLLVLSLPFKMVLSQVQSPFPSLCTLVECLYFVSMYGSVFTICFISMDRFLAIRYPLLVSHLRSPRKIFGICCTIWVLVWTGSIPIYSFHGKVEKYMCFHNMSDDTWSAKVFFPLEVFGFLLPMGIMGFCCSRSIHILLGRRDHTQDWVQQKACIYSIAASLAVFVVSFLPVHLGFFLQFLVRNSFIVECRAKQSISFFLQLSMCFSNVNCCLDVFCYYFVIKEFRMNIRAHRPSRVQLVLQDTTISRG
Chain of DNA repair and recombination protein RAD54-like (Q92698 whole entry): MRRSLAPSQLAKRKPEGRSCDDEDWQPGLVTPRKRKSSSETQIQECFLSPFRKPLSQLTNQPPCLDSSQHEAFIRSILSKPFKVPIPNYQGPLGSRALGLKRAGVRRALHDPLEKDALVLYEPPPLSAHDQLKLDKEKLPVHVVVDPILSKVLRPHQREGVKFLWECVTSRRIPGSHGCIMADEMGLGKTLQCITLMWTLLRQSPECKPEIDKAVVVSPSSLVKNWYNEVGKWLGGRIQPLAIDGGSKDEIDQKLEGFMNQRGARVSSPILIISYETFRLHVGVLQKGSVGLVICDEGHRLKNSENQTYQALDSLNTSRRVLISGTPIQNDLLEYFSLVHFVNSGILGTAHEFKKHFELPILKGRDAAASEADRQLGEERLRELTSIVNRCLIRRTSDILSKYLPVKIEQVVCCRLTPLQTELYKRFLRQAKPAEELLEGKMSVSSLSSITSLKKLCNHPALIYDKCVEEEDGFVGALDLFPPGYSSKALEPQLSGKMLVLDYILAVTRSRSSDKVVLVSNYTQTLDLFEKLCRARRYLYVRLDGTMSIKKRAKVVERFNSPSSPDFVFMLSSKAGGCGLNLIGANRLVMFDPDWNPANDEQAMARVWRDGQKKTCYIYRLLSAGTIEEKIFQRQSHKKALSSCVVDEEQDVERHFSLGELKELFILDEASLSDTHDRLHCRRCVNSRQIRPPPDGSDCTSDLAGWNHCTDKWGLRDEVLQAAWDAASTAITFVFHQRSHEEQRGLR
Chain of Trypsin (P00761 whole entry): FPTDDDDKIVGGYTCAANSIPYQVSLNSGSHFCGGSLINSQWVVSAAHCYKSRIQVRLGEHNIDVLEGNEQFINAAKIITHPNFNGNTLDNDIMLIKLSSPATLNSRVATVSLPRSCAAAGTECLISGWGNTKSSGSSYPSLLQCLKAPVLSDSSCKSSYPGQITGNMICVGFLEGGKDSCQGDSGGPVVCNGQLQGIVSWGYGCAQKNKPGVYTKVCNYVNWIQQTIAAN
Chain of Melanocortin receptor 4 (P32245 whole entry): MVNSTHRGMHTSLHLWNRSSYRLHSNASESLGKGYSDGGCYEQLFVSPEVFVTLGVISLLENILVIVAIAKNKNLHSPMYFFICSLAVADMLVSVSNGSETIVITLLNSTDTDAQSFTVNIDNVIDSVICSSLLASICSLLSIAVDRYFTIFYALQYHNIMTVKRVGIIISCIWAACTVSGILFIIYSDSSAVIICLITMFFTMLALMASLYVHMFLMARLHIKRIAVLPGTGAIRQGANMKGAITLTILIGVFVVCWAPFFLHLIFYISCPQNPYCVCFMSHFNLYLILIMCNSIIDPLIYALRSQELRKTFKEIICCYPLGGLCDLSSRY

## Cc1ccc(-c2csc3nc4c5ccccc5c(NCCCN(C)C)nn4c(=O)c23)cc1
Bcl-2-related protein A1
  IC50: > 20 µM (inactive)
[1]
  IC50: 13.7 µM (active)
[2]
  IC50: 3.7 µM (active)
[3]
  IC50: 40 µM (active)
Melanocortin receptor 4
  EC50: > 89.2 µM (inactive)
[4]
  AC50: 13.6 µM (active)
[5]
  AC50: 13.3 µM (active)

## Cc1cc(NC(=O)c2oc3ccccc3c2C)ccc1-n1cnnn1
[6]
  EC50: 2.68 µM (active)
[7]
  IC50: > 80 µM (inactive)
Trypsin
  AC50: > 100 µM (inactive)
CAAX prenyl protease 2
  AC50: 0.558 µM (active)
[8]
  AC50: > 350 µM (inactive)
